Data from ChEMBL document CHEMBL1201862, “PubChem BioAssay data set” (2004).
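1) Cells in 96-well plates. 2) Compound, 48 h, 5 concentrations. 3) Linear interpolation between surrounding doses. 4) Unreached endpoint = highest concentration. The concentration for 50% growth inhibition is given as GI50.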 Active and inactive are the calls of the source. Cut-off read from the data, not from the text of the source: active = GI50 up to about 1.1 µM and inactive = higher.

Legend:
Assay in all cases: NCI tumour cell line growth inhibition, 48 h
786-0 = system: 786-0
MOLT-4 = system: MOLT-4
IGROV-1 = system: IGROV-1
LOX IMVI = system: LOX IMVI
SW-620 = system: SW-620
K562 = system: K562
HCC 2998 = system: HCC 2998
KM-20L2 = system: KM-20L2
NCI-H226 = system: NCI-H226
NCI-H23 = system: NCI-H23
NCI-H460 = system: NCI-H460
UACC-62 = system: UACC-62
SK-MEL-2 = system: SK-MEL-2
HT-29 = system: HT-29
RXF 393 = system: RXF 393
SR = system: SR
DMS-114 = system: DMS-114

Compound | GI50 (786-0) | GI50 (MOLT-4) | GI50 (IGROV-1) | GI50 (LOX IMVI) | GI50 (SW-620) | GI50 (K562) | GI50 (HCC 2998) | GI50 (KM-20L2) | GI50 (NCI-H226) | GI50 (NCI-H23) | GI50 (NCI-H460) | GI50 (UACC-62) | GI50 (SK-MEL-2) | GI50 (HT-29) | GI50 (RXF 393) | GI50 (SR) | GI50 (DMS-114)
O=C1C[C@@H]2[C@@H](C=CC23CC3)N1O | > 100 µM (inactive) | > 100 µM (inactive) | > 100 µM (inactive) | > 100 µM (inactive) | > 100 µM (inactive) | > 100 µM (inactive) | > 100 µM (inactive) | > 100 µM (inactive) | > 100 µM (inactive) | > 100 µM (inactive) | > 100 µM (inactive) | > 100 µM (inactive) | > 100 µM (inactive) | > 100 µM (inactive) | > 100 µM (inactive) |  | 
N#Cc1ccc(Sc2nc3ccccc3[nH]2)cc1 | > 100 µM (inactive) | 94 µM (inactive) | 86.7 µM (inactive) | > 100 µM (inactive) | > 100 µM (inactive) | > 100 µM (inactive) |  |  | 36.6 µM (inactive) | > 100 µM (inactive) | 79.6 µM (inactive) | 41.7 µM (inactive) | > 100 µM (inactive) | > 100 µM (inactive) | > 100 µM (inactive) | > 100 µM (inactive) | 65 µM (inactive)
O=C(NCCCCCCNC(=O)NC1OCC(O)C(O)C1O)NC1OCC(O)C(O)C1O (centres undefined) | > 100 µM (inactive) | > 100 µM (inactive) | > 100 µM (inactive) | > 100 µM (inactive) | > 100 µM (inactive) | > 100 µM (inactive) |  |  | > 100 µM (inactive) | > 100 µM (inactive) | > 100 µM (inactive) | > 100 µM (inactive) | > 100 µM (inactive) | > 100 µM (inactive) | > 100 µM (inactive) | > 100 µM (inactive) | > 100 µM (inactive)
Cn1cnc(CCc2ccccc2)n1 | > 100 µM (inactive) | > 100 µM (inactive) | > 100 µM (inactive) | > 100 µM (inactive) | > 100 µM (inactive) | > 100 µM (inactive) |  | > 100 µM (inactive) | > 100 µM (inactive) | > 100 µM (inactive) | > 100 µM (inactive) | > 100 µM (inactive) | > 100 µM (inactive) | > 100 µM (inactive) | > 100 µM (inactive) | > 100 µM (inactive) | > 100 µM (inactive)
CC(C)c1cc(C(C)C)c(S(=O)(=O)NN)c(C(C)C)c1 | > 100 µM (inactive) |  | > 100 µM (inactive) | 42.1 µM (inactive) | > 100 µM (inactive) | > 100 µM (inactive) |  | > 100 µM (inactive) |  | > 100 µM (inactive) | > 100 µM (inactive) | > 100 µM (inactive) | > 100 µM (inactive) | > 100 µM (inactive) | > 100 µM (inactive) | > 100 µM (inactive) | > 100 µM (inactive)
CCc1cccc(C(C)C)c1NC(=O)C(=O)CC(=O)c1c(C)[n+]([O-])c2ccccc2[n+]1[O-] | > 100 µM (inactive) | 56.1 µM (inactive) | > 100 µM (inactive) | > 100 µM (inactive) | > 100 µM (inactive) | > 100 µM (inactive) | > 100 µM (inactive) | > 100 µM (inactive) | > 100 µM (inactive) | > 100 µM (inactive) | > 100 µM (inactive) | > 100 µM (inactive) | > 100 µM (inactive) |  | > 100 µM (inactive) |  | > 100 µM (inactive)
COc1nc(NC2OC(COC(C)=O)C(OC(C)=O)C(OC(C)=O)C2OC(C)=O)c(/N=C/C=N/c2c(NC3OC(COC(C)=O)C(OC(C)=O)C(OC(C)=O)C3OC(C)=O)nc(OC)[nH]c2=O)c(=O)[nH]1 (centres undefined) | > 100 µM (inactive) | > 100 µM (inactive) | > 100 µM (inactive) | > 100 µM (inactive) | > 100 µM (inactive) | > 100 µM (inactive) | > 100 µM (inactive) | > 100 µM (inactive) | > 100 µM (inactive) | > 100 µM (inactive) |  | > 100 µM (inactive) |  | > 100 µM (inactive) |  |  | > 100 µM (inactive)
ClCCC[Si]12OCCN(CCO1)CCO2 | > 100 µM (inactive) | > 100 µM (inactive) | > 100 µM (inactive) |  | > 100 µM (inactive) | > 100 µM (inactive) | > 100 µM (inactive) |  | > 100 µM (inactive) | > 100 µM (inactive) | > 100 µM (inactive) | > 100 µM (inactive) | > 100 µM (inactive) | > 100 µM (inactive) | > 100 µM (inactive) | > 100 µM (inactive) | > 100 µM (inactive)
Clc1cc(Cl)c2ns[s+]c2c1Cl | > 100 µM (inactive) | > 100 µM (inactive) | > 100 µM (inactive) | > 100 µM (inactive) | > 100 µM (inactive) | > 100 µM (inactive) | > 10 µM (inactive) | > 100 µM (inactive) | > 100 µM (inactive) | 0.132 µM (active) | > 100 µM (inactive) | > 100 µM (inactive) | > 100 µM (inactive) | > 100 µM (inactive) | > 100 µM (inactive) | > 100 µM (inactive) | 
